System: Unknown protein yeast genes
Experiment: DNA chip mRNA expression in yeast, unknown protein yeast genes (Table 1)
Assay type: cell-based, Saccharomyces cerevisiae S288C
How it was run: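 Ratios compare mRNA levels in stressed and control S. cerevisiae. Each toxicant was applied for two hours to log-phase cultures at 25° C. at a sub-lethal, growth-inhibiting level; fluorescent cDNA (Cy3- or Cy5-dUTP) was hybridized to a genome-wide yeast chip for over 12 h at 65° C.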

## Oc1cc(Cl)c(Cl)cc1Cl [(6), 2,4,5-trichlorophenol]
Yeast gene YAL053W, incubated two hours with chemical substance
  The level of expressed mRNA in the presence of chemical substance/The level of expressed mRNA in the absence of chemical substance: 1.1
Yeast gene YBL048W
  The level of expressed mRNA in the presence of chemical substance/The level of expressed mRNA in the absence of chemical substance: 2.0
Yeast gene YBL107C
  The level of expressed mRNA in the presence of chemical substance/The level of expressed mRNA in the absence of chemical substance: 1.1
Yeast gene YDL072C, incubated two hours with chemical substance
  The level of expressed mRNA in the presence of chemical substance/The level of expressed mRNA in the absence of chemical substance: 1.5
Yeast gene YDL146W
  The level of expressed mRNA in the presence of chemical substance/The level of expressed mRNA in the absence of chemical substance: 0.7
Yeast gene YDL204W, incubated two hours with chemical substance
  The level of expressed mRNA in the presence of chemical substance/The level of expressed mRNA in the absence of chemical substance: 5.6
Yeast gene YDL222C, incubated two hours with chemical substance
  The level of expressed mRNA in the presence of chemical substance/The level of expressed mRNA in the absence of chemical substance: 1.4
Yeast gene YDR057W
  The level of expressed mRNA in the presence of chemical substance/The level of expressed mRNA in the absence of chemical substance: 0.7
Yeast gene YDR330W, incubated two hours with chemical substance
  The level of expressed mRNA in the presence of chemical substance/The level of expressed mRNA in the absence of chemical substance: 2.3
Yeast gene YDR411C, incubated two hours with chemical substance
  The level of expressed mRNA in the presence of chemical substance/The level of expressed mRNA in the absence of chemical substance: 0.8
Yeast gene YDR476C
  The level of expressed mRNA in the presence of chemical substance/The level of expressed mRNA in the absence of chemical substance: 3.1
Yeast gene YDR511W, incubated two hours with chemical substance
  The level of expressed mRNA in the presence of chemical substance/The level of expressed mRNA in the absence of chemical substance: 2.0
Yeast gene YDR545W, incubated two hours with chemical substance
  The level of expressed mRNA in the presence of chemical substance/The level of expressed mRNA in the absence of chemical substance: 1.0
Yeast gene YEL001C, incubated two hours with chemical substance
  The level of expressed mRNA in the presence of chemical substance/The level of expressed mRNA in the absence of chemical substance: 1.3
Yeast gene YER004W, incubated two hours with chemical substance
  The level of expressed mRNA in the presence of chemical substance/The level of expressed mRNA in the absence of chemical substance: 1.2
Yeast gene YER035W, incubated two hours with chemical substance
  The level of expressed mRNA in the presence of chemical substance/The level of expressed mRNA in the absence of chemical substance: 0.9
Yeast gene YER079W, incubated two hours with chemical substance
  The level of expressed mRNA in the presence of chemical substance/The level of expressed mRNA in the absence of chemical substance: 1.5
Yeast gene YER106W, incubated two hours with chemical substance
  The level of expressed mRNA in the presence of chemical substance/The level of expressed mRNA in the absence of chemical substance: 1.1
Yeast gene YER158C, incubated two hours with chemical substance
  The level of expressed mRNA in the presence of chemical substance/The level of expressed mRNA in the absence of chemical substance: 0.7
Yeast gene YER163C, incubated two hours with chemical substance
  The level of expressed mRNA in the presence of chemical substance/The level of expressed mRNA in the absence of chemical substance: 2.0
Yeast gene YER175C, incubated two hours with chemical substance
  The level of expressed mRNA in the presence of chemical substance/The level of expressed mRNA in the absence of chemical substance: 0.8
Yeast gene YFL006W, incubated two hours with chemical substance
  The level of expressed mRNA in the presence of chemical substance/The level of expressed mRNA in the absence of chemical substance: 1.2
Yeast gene YFL010C, incubated two hours with chemical substance
  The level of expressed mRNA in the presence of chemical substance/The level of expressed mRNA in the absence of chemical substance: 1.9
Yeast gene YFL024C
  The level of expressed mRNA in the presence of chemical substance/The level of expressed mRNA in the absence of chemical substance: 2.0
Yeast gene YFL032W, incubated two hours with chemical substance
  The level of expressed mRNA in the presence of chemical substance/The level of expressed mRNA in the absence of chemical substance: 0.6
Yeast gene YFL046W
  The level of expressed mRNA in the presence of chemical substance/The level of expressed mRNA in the absence of chemical substance: 0.7
Yeast gene YGL037C, incubated two hours with chemical substance
  The level of expressed mRNA in the presence of chemical substance/The level of expressed mRNA in the absence of chemical substance: 1.3
Yeast gene YGL047W, incubated two hours with chemical substance
  The level of expressed mRNA in the presence of chemical substance/The level of expressed mRNA in the absence of chemical substance: 1.5
Yeast gene YGL053W, incubated two hours with chemical substance
  The level of expressed mRNA in the presence of chemical substance/The level of expressed mRNA in the absence of chemical substance: 2.7
Yeast gene YGL059W
  The level of expressed mRNA in the presence of chemical substance/The level of expressed mRNA in the absence of chemical substance: 0.7
Yeast gene YGL121C
  The level of expressed mRNA in the presence of chemical substance/The level of expressed mRNA in the absence of chemical substance: 9.8
Yeast gene YGL199C, incubated two hours with chemical substance
  The level of expressed mRNA in the presence of chemical substance/The level of expressed mRNA in the absence of chemical substance: 0.7
Yeast gene YGR024C
  The level of expressed mRNA in the presence of chemical substance/The level of expressed mRNA in the absence of chemical substance: 0.7
Yeast gene YGR101W, incubated two hours with chemical substance
  The level of expressed mRNA in the presence of chemical substance/The level of expressed mRNA in the absence of chemical substance: 0.9
Yeast gene YGR110W
  The level of expressed mRNA in the presence of chemical substance/The level of expressed mRNA in the absence of chemical substance: 0.9
Yeast gene YGR130C, incubated two hours with chemical substance
  The level of expressed mRNA in the presence of chemical substance/The level of expressed mRNA in the absence of chemical substance: 0.9
Yeast gene YGR154C, incubated two hours with chemical substance
  The level of expressed mRNA in the presence of chemical substance/The level of expressed mRNA in the absence of chemical substance: 1.4
Yeast gene YGR221C, incubated two hours with chemical substance
  The level of expressed mRNA in the presence of chemical substance/The level of expressed mRNA in the absence of chemical substance: 3.0
Yeast gene YHL042W
  The level of expressed mRNA in the presence of chemical substance/The level of expressed mRNA in the absence of chemical substance: 0.7
Yeast gene YHR029C
  The level of expressed mRNA in the presence of chemical substance/The level of expressed mRNA in the absence of chemical substance: 2.7
Yeast gene YHR138C, incubated two hours with chemical substance
  The level of expressed mRNA in the presence of chemical substance/The level of expressed mRNA in the absence of chemical substance: 3.8
Yeast gene YHR199C, incubated two hours with chemical substance
  The level of expressed mRNA in the presence of chemical substance/The level of expressed mRNA in the absence of chemical substance: 1.1
Yeast gene YIL023C, incubated two hours with chemical substance
  The level of expressed mRNA in the presence of chemical substance/The level of expressed mRNA in the absence of chemical substance: 0.9
Yeast gene YIL041W, incubated two hours with chemical substance
  The level of expressed mRNA in the presence of chemical substance/The level of expressed mRNA in the absence of chemical substance: 1.0
Yeast gene YIL087C, incubated two hours with chemical substance
  The level of expressed mRNA in the presence of chemical substance/The level of expressed mRNA in the absence of chemical substance: 4.1
Yeast gene YJL057C, incubated two hours with chemical substance
  The level of expressed mRNA in the presence of chemical substance/The level of expressed mRNA in the absence of chemical substance: 1.4
Yeast gene YJL066C, incubated two hours with chemical substance
  The level of expressed mRNA in the presence of chemical substance/The level of expressed mRNA in the absence of chemical substance: 1.4
Yeast gene YJL082W, incubated two hours with chemical substance
  The level of expressed mRNA in the presence of chemical substance/The level of expressed mRNA in the absence of chemical substance: 0.2
Yeast gene YJL144W
  The level of expressed mRNA in the presence of chemical substance/The level of expressed mRNA in the absence of chemical substance: 1.7
Yeast gene YJL151C, incubated two hours with chemical substance
  The level of expressed mRNA in the presence of chemical substance/The level of expressed mRNA in the absence of chemical substance: 2.2
Yeast gene YJL152W, incubated two hours with chemical substance
  The level of expressed mRNA in the presence of chemical substance/The level of expressed mRNA in the absence of chemical substance: 1.5
Yeast gene YJL161W, incubated two hours with chemical substance
  The level of expressed mRNA in the presence of chemical substance/The level of expressed mRNA in the absence of chemical substance: 8.0
Yeast gene YJL163C
  The level of expressed mRNA in the presence of chemical substance/The level of expressed mRNA in the absence of chemical substance: 2.8
Yeast gene YJL171C, incubated two hours with chemical substance
  The level of expressed mRNA in the presence of chemical substance/The level of expressed mRNA in the absence of chemical substance: 2.7
Yeast gene YJR008W, incubated two hours with chemical substance
  The level of expressed mRNA in the presence of chemical substance/The level of expressed mRNA in the absence of chemical substance: 2.2
Yeast gene YJR054W, incubated two hours with chemical substance
  The level of expressed mRNA in the presence of chemical substance/The level of expressed mRNA in the absence of chemical substance: 0.7
Yeast gene YKL071W
  The level of expressed mRNA in the presence of chemical substance/The level of expressed mRNA in the absence of chemical substance: 18.6

Source: patent US8192962B2, “Processes for detecting toxic substances” (Daikin Industries, Ltd., priority 2001, dated 2012)
